Legend:
[1] = tested on: putrescine N-methyltransferase ("PMT") / subject tobacco protein; assay: Apparent Km determination in the apparent PMT activity assay; assay type: biochemical, Nicotiana tabacum L. var. Burley 21; conditions: partially purified tobacco protein; S-adenosylmethionine in excess
Procedure: (§1) The reaction was started by addition of the enzyme sample, and it was carried out at 30° C. for 30 minutes. The reaction was stopped by addition of 0.5 ml of 10% (w/v) NaOH saturated with NaCl.
(§2) The radioactive product, N-[^14 C-methyl]putrescine, was separated from the substrate by solvent extraction into chloroform. After vortexing the stopped reaction mixture with 1 ml of chloroform for 90 seconds, the organic and aqueous phases were separated by centrifugation at 1600×gav for 5 minutes. A 0.5 ml aliquot of the organic phase was then assayed. The 0.5 ml aliquot of the organic phase was added to 9.5 ml of liquid scintillation cocktail (Beckman Instruments, Columbia, Md.) and radioactivity was measured by standard procedures with a liquid scintillation counter.
(§3) One unit of apparent PMT activity is defined as one nanomole of product formed per 30 min., at 30° C.
(§4) Negative controls were included with all PMT assays. Negative controls consisted of reaction mixtures minus enzyme, or reaction stopped with NaOH at time zero.

[2] = tested on: putrescine N-methyltransferase ("PMT") / highly purified tobacco protein; assay: Substrate specificity test: analogs substituted for putrescine in the standard PMT assay; assay type: biochemical, Nicotiana tabacum L. var. Burley 21; conditions: for radioactive product formed when substituted for putrescine: standard PMT assay, 30° C., 30 minutes
Procedure: as §1, §2, §3, §4
Substrate specificity tests were carried out with the highly purified tobacco protein of the present invention. 1,3-Diaminopropane and 1,5-diaminopentane (chemical analogs of putrescine) phosphatidylethanolamine (a methyl group acceptor), and N-methylputrescine(the normal product of PMT), were compared with putrescine (1,4-diaminobutane) for ability to serve as an apparent substrate for PMT.

Molecule	radioactive product formed when substituted for putrescine [2]	further results
NCCCCN [putrescine, 1,4-diaminobutane]	–	Km [1]: ~400 µM
NCCCCCN [1,5-diaminopentane]	no detectable amount of radioactive product was formed	–
phosphatidylethanolamine	no detectable amount of radioactive product was formed	–
NCCCN [1,3-diaminopropane, 1,3-Diaminopropane]	no detectable amount of radioactive product was formed	–
CNCCCCN [N-methylputrescine]	–	radioactive product formation relative to that observed with putrescine ([2]; substituted for putrescine in the PMT assay): less than 6%

Reference: patent US5668295A, “Protein involved in nicotine synthesis, DNA encoding, and use of sense and antisense DNAs corresponding thereto to affect nicotine content in transgenic tobacco cells and plants” (Philip Morris Incorporated, priority 1995, dated 1997)
